# Where two headings read alike, the source gives them in different places.
# Assays:
# HRAS wild-type protein = HRAS wild-type protein (Homo sapiens, UniProt P01112); experiment: Binding to HRAS by surface plasmon resonance (SPR), KD and KD ratio to KRAS; settings: ratio of KD for HRAS wild-type protein to KD for KRAS
# Summary of the method: (§1)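 GDP-loaded biotinylated Avi-tag RAS proteins (E. coli-expressed) captured on a Biotin CAPture chip at ~100–300 RU; single-cycle kinetics at 30°C, 100 µL/min, 75 s injections of rising compound concentrations. HBS pH 7.4 running buffer with 1 mM DTT, 10 mM MgCl2, 10 µM GDP, 4% DMSO. KD from 1:1 binding fit.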
# [1] = biological target: GDP-bound KRAS wild-type protein (Homo sapiens, UniProt P01116); experiment: Binding to KRAS by surface plasmon resonance (SPR), dissociation constant KD; settings: 1:1 binding model
# Summary of the method: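 GDP-bound biotin-Avi RAS captured at ~100–300 RU, 30°C, pH 7.4 HBS containing 10 µM GDP, 10 mM MgCl2, 1 mM DTT, 0.01% Tween 20 and 4% DMSO. KD by 1:1 fitting.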
# [2] = biological target: GDP-bound NRAS wild-type protein (Homo sapiens, UniProt P01111); experiment: Binding to NRAS by surface plasmon resonance (SPR), KD and KD ratio to KRAS; settings: ratio of KD for GDP-bound NRAS wild-type protein to KD for KRAS
# Summary of the method: as §1
# [3] = tested on: human lung cancer strain NCI-H441; format: cell-based
# Summary of the method: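 Readout: […] after the ATP-based reagent. Compound: serial dilutions in dimethyl sulfoxide.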
# Chain of GDP-bound KRAS wild-type protein (P01116 1-188 isoform P01116-2): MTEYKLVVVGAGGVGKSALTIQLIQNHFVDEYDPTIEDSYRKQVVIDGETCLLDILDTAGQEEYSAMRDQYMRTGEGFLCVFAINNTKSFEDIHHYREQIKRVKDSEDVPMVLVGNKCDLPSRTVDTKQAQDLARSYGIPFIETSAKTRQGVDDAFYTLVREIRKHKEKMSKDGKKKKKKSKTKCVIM
# Chain of GDP-bound NRAS wild-type protein (P01111 whole entry): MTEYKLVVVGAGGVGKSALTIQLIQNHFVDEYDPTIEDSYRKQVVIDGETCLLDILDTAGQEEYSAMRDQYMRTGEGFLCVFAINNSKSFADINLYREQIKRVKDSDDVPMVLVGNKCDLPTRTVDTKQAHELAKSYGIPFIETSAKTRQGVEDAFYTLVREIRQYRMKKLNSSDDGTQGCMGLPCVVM
# Chain of HRAS wild-type protein (P01112 whole entry): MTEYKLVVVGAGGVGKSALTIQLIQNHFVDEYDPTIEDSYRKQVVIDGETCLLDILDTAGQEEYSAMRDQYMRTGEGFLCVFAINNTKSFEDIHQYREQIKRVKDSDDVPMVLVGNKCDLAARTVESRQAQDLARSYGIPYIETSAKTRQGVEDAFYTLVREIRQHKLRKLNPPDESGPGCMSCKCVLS
Compound,HRAS /KRAS (HRAS wild-type protein),Kd [1],NRAS /KRAS [2],"IC50 ([3]; NCI-H441 cells, 4 days, CellTiter-Glo, read-out: NCl-H441 IC50)",IC50 [3]
CCC(CC)[C@H]1C(=O)N(C)[C@H](C(=O)N2CCCCC2)CC(=O)N(C)[C@H]2CCC/C=C/c3ccc(cc3)C[C@@H](C(=O)N(C)CC(=O)N[C@@H](CCc3ccc(Cl)c(Cl)c3)C(=O)N3CCC[C@H]3C(=O)NC3(CC(C)(C)C3)C(=O)N1C)N1CC/C=C\C[C@@H](C1=O)N(C)C(=O)CN(C)C(=O)[C@H]([C@@H](C)CC)NC2=O [PP3055],A (a compound having 10 or more and less than 20 is denoted as A),1 nM,AA (a compound having 20 or more is denoted as AA),69.2 nM,
CCO[C@@H]1C[C@H]2C(=O)NC3(CC(C)(C)C3)C(=O)N(C)[C@@H](C3CCCC3)C(=O)N(C)[C@H](C(=O)N(C)CC)CC(=O)N(C)[C@H]3C/C=C/c4ccc(cc4)C[C@@H](C(=O)N(C)CC(=O)N[C@@H](CCc4ccc(Cl)c(Cl)c4)C(=O)N2C1)N1CC/C=C\C[C@@H](C1=O)N(C)C(=O)CN(C)C(=O)[C@H]([C@@H](C)CC)NC3=O [PP3056],A (a compound having 10 or more and less than 20 is denoted as A),1.4 nM,A (a compound having 10 or more and less than 20 is denoted as A),,151 nM
CCO[C@@H]1C[C@H]2C(=O)NC3(CC(C)(C)C3)C(=O)N(C)[C@@H](C3CCCC3)C(=O)N(C)[C@H](C(=O)N(C)C)CC(=O)N(C)[C@H]3CCCCC/C=C/c4ccc(cc4)C[C@@H](C(=O)N(C)CC(=O)N[C@@H](CCc4ccc(Cl)c(Cl)c4)C(=O)N2C1)N1CC/C=C\C[C@@H](C1=O)N(C)C(=O)CN(C)C(=O)[C@H]([C@@H](C)CC)NC3=O [PP3057],B (a compound having 3 or more and less than 10 is denoted as B),0.17 nM,A (a compound having 10 or more and less than 20 is denoted as A),,8.5 nM
CCCO[C@@H]1C[C@H]2C(=O)NC3(CC(C)(C)C3)C(=O)N(C)[C@@H](C3CCCC3)C(=O)N(C)[C@H](C(=O)N(C)CC)CC(=O)N(C)[C@H]3CCCc4ccc(cc4)C[C@@H](C(=O)N(C)CC(=O)N[C@@H](CCc4ccc(C(F)(F)F)c(OC)c4)C(=O)N2C1)N1CC/C=C\C[C@@H](C1=O)N(C)C(=O)CN(C)C(=O)[C@H]([C@@H](C)CC)NC3=O [PP3083],A (a compound having 10 or more and less than 20 is denoted as A),0.077 nM,A (a compound having 10 or more and less than 20 is denoted as A),,2.5 nM
CC[C@H](C)[C@@H]1NC(=O)[C@@H]2CCCc3ccc(cc3)C[C@@H](C(=O)N(C)CC(=O)N[C@@H](CCc3ccc(C(F)(F)F)c(OC)c3)C(=O)N3C[C@H](OC(C)C)C[C@H]3C(=O)NC3(CC(C)(C)C3)C(=O)N(C)[C@@H](C3CCCC3)C(=O)N(C)[C@H](C(=O)N(C)CC)CC(=O)N2C)N2CC/C=C\C[C@@H](C2=O)N(C)C(=O)CN(C)C1=O [PP3084],B (a compound having 3 or more and less than 10 is denoted as B),0.12 nM,A (a compound having 10 or more and less than 20 is denoted as A),,3.7 nM
CCO[C@@H]1C[C@H]2C(=O)N(C)C3(CC(C)(C)C3)C(=O)N(C)[C@@H](C3CCCC3)C(=O)N(C)[C@H](C(=O)N(C)C)CC(=O)N(C)[C@H]3CCCCCc4ccc(cc4)C[C@@H](C(=O)N(C)CC(=O)N[C@@H](CCc4ccc(C(F)(F)F)c(OC)c4)C(=O)N2C1)N1CC/C=C\C[C@@H](C1=O)N(C)C(=O)CN(C)C(=O)[C@H]([C@@H](C)CC)NC3=O [PP3091],B (a compound having 3 or more and less than 10 is denoted as B),0.031 nM,A (a compound having 10 or more and less than 20 is denoted as A),,1.2 nM
CCC[C@H]1C(=O)N[C@@H]([C@@H](C)CC)C(=O)N(C)CC(=O)N(C)[C@H]2C/C=C\CCN(C2=O)[C@@H](Cc2ccc(C(F)(F)F)cc2)C(=O)N(C)CC(=O)N[C@@H](CCc2ccc(C(F)(F)F)c(F)c2)C(=O)N2C[C@H](F)C[C@H]2C(=O)NC2(CC(C)(C)C2)C(=O)N(C)[C@@H](C2CCCCC2)C(=O)N(C)[C@H](C(=O)N(C)C)CC(=O)N1C [PP3122],B (a compound having 3 or more and less than 10 is denoted as B),0.4 nM,A (a compound having 10 or more and less than 20 is denoted as A),,11.1 nM
CCCC[C@H]1C(=O)N[C@@H]([C@@H](C)CC)C(=O)N(C)CC(=O)N(C)[C@H]2C/C=C\CCN(C2=O)[C@@H](Cc2ccc(C(F)(F)F)cc2)C(=O)N(C)CC(=O)N[C@@H](CCc2ccc(C(F)(F)F)cc2Cl)C(=O)N2C[C@H](F)C[C@H]2C(=O)NC2(CC(C)(C)C2)C(=O)N(C)[C@@H](C2CCC2)C(=O)N(C)[C@H](C(=O)N(C)C)CC(=O)N1C [PP3124],A (a compound having 10 or more and less than 20 is denoted as A),1.1 nM,A (a compound having 10 or more and less than 20 is denoted as A),,39 nM
C#CC[C@H]1C(=O)N[C@@H]([C@@H](C)CC)C(=O)N(C)CC(=O)N(C)[C@H]2C/C=C\CCN(C2=O)[C@@H](Cc2ccc(C(F)(F)F)cc2)C(=O)N(C)CC(=O)N[C@@H](CCc2ccc(C(F)(F)F)c(OC)c2)C(=O)N2C[C@H](F)C[C@H]2C(=O)NC2(CC(C)(C)C2)C(=O)N(C)[C@@H](CCC=C)C(=O)N(C)[C@H](C(=O)N(C)C)CC(=O)N1C [PP3126],A (a compound having 10 or more and less than 20 is denoted as A),0.81 nM,AA (a compound having 20 or more is denoted as AA),,116 nM
C#CC[C@H]1C(=O)N[C@@H]([C@@H](C)CC)C(=O)N(C)CC(=O)N(C)[C@H]2C/C=C\CCN(C2=O)[C@@H](Cc2ccc(C(F)(F)F)cc2)C(=O)N(C)CC(=O)N[C@@H](CCc2ccc(C(F)(F)F)c(OC)c2)C(=O)N2C[C@H](OCC)C[C@H]2C(=O)NC2(CCCC2)C(=O)N(C)[C@@H](C2CCC2)C(=O)N(C)[C@H](C(=O)N2CCCCC2)CC(=O)N1C [PP3131],A (a compound having 10 or more and less than 20 is denoted as A),2.8 nM,A (a compound having 10 or more and less than 20 is denoted as A),,157 nM
C#CC[C@H]1C(=O)N[C@@H]([C@@H](C)CC)C(=O)N(C)CC(=O)N(C)[C@H]2C/C=C\CCN(C2=O)[C@@H](Cc2ccc(C(F)(F)F)cc2)C(=O)N(C)CC(=O)N[C@@H](CCc2ccc(C(F)(F)F)c(OC)c2)C(=O)N2C[C@H](F)C[C@H]2C(=O)NC2(CC(C)(C)C2)C(=O)N(C)[C@@H](CCC=C)C(=O)N(C)[C@H](C(=O)N2CCCC2)CC(=O)N1C [PP3132],A (a compound having 10 or more and less than 20 is denoted as A),3.5 nM,A (a compound having 10 or more and less than 20 is denoted as A),,245 nM
C#CC[C@H]1C(=O)N[C@@H]([C@@H](C)CC)C(=O)N(C)CC(=O)N(C)[C@H]2C/C=C\CCN(C2=O)[C@@H](Cc2ccc(C(F)(F)F)cc2)C(=O)N(C)CC(=O)N[C@@H](CCc2ccc(C(F)(F)F)c(OC)c2)C(=O)N2C[C@H](C)[C@H]2C(=O)NC2(CCC2)C(=O)N(C)[C@@H](C2CCCC2)C(=O)N(C)[C@H](C(=O)N2CCOCC2)CC(=O)N1C [PP3133],A (a compound having 10 or more and less than 20 is denoted as A),1.1 nM,A (a compound having 10 or more and less than 20 is denoted as A),,220 nM
CC[C@H](C)[C@@H]1NC(=O)[C@H](COC)N(C)C(=O)C[C@@H](C(=O)N(C)C)N(C)C(=O)[C@H](C2CCCC2)N(C)C(=O)C2(CC(C)(C)C2)NC(=O)CNC(=O)[C@H](CCc2ccc(C(F)(F)F)c(Cl)c2)NC(=O)CN(C)C(=O)[C@H](Cc2ccc(C(F)(F)F)cc2)N2CC/C=C\C[C@@H](C2=O)N(C)C(=O)CN(C)C1=O [PP3134],A (a compound having 10 or more and less than 20 is denoted as A),0.33 nM,AA (a compound having 20 or more is denoted as AA),,812 nM
CC[C@H](C)[C@@H]1NC(=O)[C@H](COC)N(C)C(=O)C[C@@H](C(=O)N(C)CC)N(C)C(=O)[C@H](C2CCCC2)N(C)C(=O)C2(CC(C)(C)C2)NC(=O)[C@@H]2CC(F)(F)CN2C(=O)[C@H](CCc2ccc(C(F)(F)F)c(Cl)c2)NC(=O)CN(C)C(=O)[C@H](Cc2ccc(C(F)(F)F)cc2)N2CC/C=C\C[C@@H](C2=O)N(C)C(=O)CN(CC)C1=O [PP3135],A (a compound having 10 or more and less than 20 is denoted as A),1.1 nM,A (a compound having 10 or more and less than 20 is denoted as A),,27.6 nM
CC[C@H](C)[C@@H]1NC(=O)[C@H](COC)N(C)C(=O)C[C@@H](C(=O)N(C)CC)N(C)C(=O)[C@H](C2CCCC2)N(C)C(=O)C2(CC(C)(C)C2)NC(=O)[C@@H]2CC(F)(F)CN2C(=O)[C@H](CCc2ccc(C(F)(F)F)c(OC)c2)NC(=O)CN(C)C(=O)[C@H](Cc2ccc(C(F)(F)F)cc2)N2CC/C=C\C[C@@H](C2=O)N(C)C(=O)[C@@H]2CCN2C1=O [PP3136],B (a compound having 3 or more and less than 10 is denoted as B),0.63 nM,B (a compound having 3 or more and less than 10 is denoted as B),,47 nM
CC[C@H](C)[C@@H]1NC(=O)[C@H](COC)NC(=O)C[C@@H](C(=O)N(C)CC)N(C)C(=O)[C@H](C2CCCC2)N(C)C(=O)C2(CC(C)(C)C2)NC(=O)[C@@H]2C[C@@H](F)CN2C(=O)[C@H](CCc2ccc(C(F)(F)F)c(OC)c2)NC(=O)CN(C)C(=O)[C@H](Cc2ccc(C(F)(F)F)cc2)N2CC/C=C\C[C@@H](C2=O)N(C)C(=O)CN(C)C1=O [PP3137],A (a compound having 10 or more and less than 20 is denoted as A),0.084 nM,A (a compound having 10 or more and less than 20 is denoted as A),,23 nM
